# Where “and” joins values, the source holds several entries; their conditions need not be identical. Equal values may be shown once.
# System: C. glabrata strains (WT, pdr1∆ or PDR1 rescue)
# Assay: Growth assays to assess compound efflux
# Type: cell-based
# Settings: for growth (Figure S10A): three replicates
# Experimental: Cells from a single colony were diluted in 0.85% NaCl before being counted using a Neubauer chamber. […] The effect of fluconazole was tested by titration on these strains under similar conditions.
structure (smiles),measurement,setting,value
OC(Cn1cncn1)(Cn1cncn1)c1ccc(F)cc1F [fluconazole],growth (Figure S10A),"Cg101 pdr1Δ mut, Fluconazole 0.5 µg/mL",21% and 19% and 15%
same,growth (Figure S10A),"Cg101 pdr1Δ mut, Fluconazole 1 µg/mL",12% and 11% and 6%
same,growth (Figure S10A),"Cg101 pdr1Δ mut, Fluconazole 2 µg/mL",6% (2×) and 2%
same,growth (Figure S10A),"Cg101 pdr1Δ mut, Fluconazole 4 µg/mL",6% and 3% and 2%
same,growth (Figure S10A),"Cg102 pdr1 rescue, Fluconazole 0.5 µg/mL",55% and 61% and 53%
same,growth (Figure S10A),"Cg102 pdr1 rescue, Fluconazole 1 µg/mL",36% and 35% and 25%
same,growth (Figure S10A),"Cg102 pdr1 rescue, Fluconazole 2 µg/mL",14% and 19% and 18%
same,growth (Figure S10A),"Cg102 pdr1 rescue, Fluconazole 4 µg/mL",5% and 9% and 6%
same,growth (Figure S10A),"Cg103 PDR1 WT, Fluconazole 0.5 µg/mL",57% and 60% and 48%
same,growth (Figure S10A),"Cg103 PDR1 WT, Fluconazole 1 µg/mL",24% (2×) and 33%
same,growth (Figure S10A),"Cg103 PDR1 WT, Fluconazole 2 µg/mL",13% and 12% and 14%
same,growth (Figure S10A),"Cg103 PDR1 WT, Fluconazole 4 µg/mL",6% and 5% (2×)
same,sensitivity upon deletion of PDR1,"titration, pdr1Δ versus WT and rescue strains",enhanced

# Source: article PMC11904993, “Humanized Candida and NanoBiT Assays Expedite Discovery of Bdf1 Bromodomain Inhibitors With Antifungal Potential” (Advanced Science, 2025)
